Read-outs that look alike come from different tables or passages of the source. Numbered stars: 1 amine (or outer) side, 2 acyl side, 3 side chain; on linkers, the order of the positions; unused ones are H or OH. Square brackets hold non-standard residues; d marks the D form. Side chains are listed from the residue outwards. Peptide text beside a SMILES is read from it. * marks the point of attachment. C20 diacid = O=C(O)CCCCCCCCCCCCCCCCCCC(=O)*; γGlu = O=C(O)[C@H](CCC(=O)[*:2])N[*:1]; AEEA = NCCOCCOCC(=O)O; Aib = CC(C)(N)C(=O)O
Assays:
SCTR = SCTR (Homo sapiens, UniProt P47872); experiment: hSCTR potency, cAMP accumulation in CHO-K1 cells stably overexpressing hSCTR; type: cell-based; design: alternatively Euroscreen ES-712-AF; FAST-0161L; host or cells: CHO-K1; settings: cAMP accumulation
Summary of the method: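 CHO-K1/hSCTR cells; DPBS + 0.05% casein + 0.5 mM IBMX; 30 min RT stimulation; cAMP by TR-FRET read at 1 h. Crude peptides: 5-point 10-fold dilutions, n=1. Purified: 11-point 3-fold dilutions, n=2. EC50 via variable-slope fit.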

[1] = Turbidity of crude library peptides (absorbance at 600 nm); type: physicochemical; settings: Physical stability of peptides
Summary of the method: (§1)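 Fibril formation is scored as average ThT fluorescence from duplicate samples monitored for 72 h at 40° C with shaking stress. Turbidity is the absorbance at 600 nm taken before heating. Peptide concentration was 267 μM at pH 4.0 or pH 7.0.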

GLP1R = GLP1R (Homo sapiens, UniProt P43220); experiment: hGLP1R potency, cAMP accumulation in CHO-K1 cells stably overexpressing hGLP1R; type: cell-based; design: host or cells: CHO-K1; settings: for Selectivity: SCTR EC50/GLP1R EC50 ratio; for EC50: cAMP accumulation; for SCTR EC50/GLP1R EC50 ratio: cAMP accumulation in CHO-K1 cells
Summary of the method: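 TR-FRET cAMP read-out, one hour after reagent addition, following 30 min compound exposure at RT in DPBS/0.05% casein/0.5 mM IBMX. Crude peptides: 5 points, 10-fold steps, n=1. Purified peptides: 11 points, 3-fold steps, n=2. EC50 fitted with a variable-slope sigmoid.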

[2] = Fibril formation of crude library peptides (Thioflavin T); type: physicochemical; design: key: average ThT fluorescence emission at 480 nm (ex 450 nm), raw units; settings: Physical stability of peptides
Summary of the method: as §1

[3] = CHO-K1 cells overexpressing hSCTR, read-out: pEC50 hSCTR (converted)
[4] = CHO-K1 cells overexpressing hGLP1R, read-out: pEC50 hGLPR1 (converted)

SCTR, sequence (P47872 23-440): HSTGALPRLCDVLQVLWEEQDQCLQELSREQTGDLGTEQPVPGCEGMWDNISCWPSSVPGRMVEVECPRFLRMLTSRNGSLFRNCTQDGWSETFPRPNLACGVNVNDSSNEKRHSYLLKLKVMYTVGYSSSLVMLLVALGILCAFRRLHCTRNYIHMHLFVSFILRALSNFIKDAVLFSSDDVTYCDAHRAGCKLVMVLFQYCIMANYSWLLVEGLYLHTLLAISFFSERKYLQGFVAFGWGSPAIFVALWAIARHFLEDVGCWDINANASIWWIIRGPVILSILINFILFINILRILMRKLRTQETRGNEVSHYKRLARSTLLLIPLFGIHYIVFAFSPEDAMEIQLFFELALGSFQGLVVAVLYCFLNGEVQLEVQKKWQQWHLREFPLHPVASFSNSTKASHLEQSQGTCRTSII
GLP1R, sequence (P43220 24-463): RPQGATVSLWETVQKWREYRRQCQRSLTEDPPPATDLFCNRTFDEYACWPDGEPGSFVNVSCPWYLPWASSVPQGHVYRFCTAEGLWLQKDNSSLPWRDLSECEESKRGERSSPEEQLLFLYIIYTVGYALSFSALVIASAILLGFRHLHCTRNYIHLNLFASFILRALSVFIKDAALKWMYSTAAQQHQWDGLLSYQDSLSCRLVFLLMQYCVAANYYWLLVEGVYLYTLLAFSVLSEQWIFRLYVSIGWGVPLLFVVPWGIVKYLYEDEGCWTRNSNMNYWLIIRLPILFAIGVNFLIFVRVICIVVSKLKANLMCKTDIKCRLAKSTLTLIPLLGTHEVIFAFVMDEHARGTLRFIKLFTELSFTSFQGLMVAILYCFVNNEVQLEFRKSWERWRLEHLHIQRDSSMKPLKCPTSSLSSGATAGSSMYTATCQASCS

EC50 (SCTR; [3])	Turbidity (pH 7) [1]	Selectivity (GLP1R)	EC50 (GLP1R; [4])	Fibril formation [2]	EC50 (SCTR; CHO-K1 cells stably overexpressing hSCTR, read-out: hSCTR potency (pEC50) (converted))	EC50 (GLP1R; CHO-K1 cells stably overexpressing hGLP1R, read-out: hGLP1R potency (pEC50) (converted))	SCTR EC50/GLP1R EC50 ratio (GLP1R; selectivity ratio, hSCTR vs hGLP1R)	EC50 (SCTR; CHO-K1 cells overexpressing hSCTR, read-out: hSCTR pEC50 (converted))	EC50 (GLP1R; CHO-K1 cells overexpressing hGLP1R, read-out: hGLP1R pEC50 (converted))	SCTR EC50/GLP1R EC50 ratio (GLP1R; selectivity for hGLP1R over hSCTR)	Structure (SMILES)
126 nM	0.09	4314	0.0316 nM	13939							CC(C)C[C@H](NC(=O)[C@H](Cc1ccccc1)NC(=O)[C@H](CCCNC(=N)N)NC(=O)[C@H](CCC(N)=O)NC(=O)[C@H](CO)NC(=O)[C@H](C)NC(=O)[C@H](C)NC(=O)C(C)(C)NC(=O)[C@H](CCC(=O)O)NC(=O)[C@H](CCCCNC(=O)COCCOCCNC(=O)COCCOCCNC(=O)CC[C@H](NC(=O)CCCCCCCCCCCCCCCCCCC(=O)O)C(=O)O)NC(=O)[C@H](CC(C)C)NC(=O)[C@H](CCCNC(=N)N)NC(=O)[C@H](CO)NC(=O)[C@@H](NC(=O)[C@H](CC(=O)O)NC(=O)[C@H](CO)NC(=O)[C@@H](NC(=O)[C@H](Cc1ccccc1)NC(=O)[C@@H](NC(=O)CNC(=O)[C@H](CCC(=O)O)NC(=O)C(C)(C)NC(=O)[C@@H](N)Cc1c[nH]cn1)[C@@H](C)O)[C@@H](C)O)C(C)C)C(=O)N[C@@H](CCC(=O)O)C(=O)N[C@@H](Cc1c[nH]cn1)C(=O)N[C@@H](CC(C)C)C(=O)N[C@H](C(N)=O)C(C)C [compound 59] (H-H[Aib]EGTFTSDVSRLK([AEEA-AEEA-γGlu-C20 diacid])E[Aib]AASQRFLEHLV-NH2)
1580 nM	0.08	54828	0.0316 nM	9070							CC(C)C[C@H](NC(=O)[C@H](Cc1ccccc1)NC(=O)[C@H](CCCNC(=N)N)NC(=O)[C@H](CCC(N)=O)NC(=O)[C@H](CCC(N)=O)NC(=O)[C@H](C)NC(=O)[C@H](C)NC(=O)[C@H](CCC(=O)O)NC(=O)[C@H](CCC(=O)O)NC(=O)[C@H](CCCCNC(=O)COCCOCCNC(=O)COCCOCCNC(=O)CC[C@H](NC(=O)CCCCCCCCCCCCCCCCCCC(=O)O)C(=O)O)NC(=O)[C@H](CC(C)C)NC(=O)[C@H](Cc1ccccc1)NC(=O)[C@H](CO)NC(=O)[C@@H](NC(=O)[C@H](CC(=O)O)NC(=O)[C@H](CO)NC(=O)[C@@H](NC(=O)[C@H](Cc1ccccc1)NC(=O)[C@@H](NC(=O)CNC(=O)[C@H](CCC(=O)O)NC(=O)C(C)(C)NC(=O)[C@@H](N)Cc1c[nH]cn1)[C@@H](C)O)[C@@H](C)O)C(C)C)C(=O)N[C@@H](CCC(=O)O)C(=O)N[C@@H](Cc1c[nH]cn1)C(=O)N[C@@H](CC(C)C)C(=O)N[C@H](C(N)=O)C(C)C [compound 83] (H-H[Aib]EGTFTSDVSFLK([AEEA-AEEA-γGlu-C20 diacid])EEAAQQRFLEHLV-NH2)
5010 nM	0.08	212618	0.0251 nM	4882							CC(C)C[C@H](NC(=O)[C@H](Cc1ccccc1)NC(=O)[C@H](CCCNC(=N)N)NC(=O)[C@H](CCC(N)=O)NC(=O)[C@H](C)NC(=O)[C@H](C)NC(=O)[C@H](C)NC(=O)[C@@H](NC(=O)[C@H](CCC(=O)O)NC(=O)[C@H](CCCCNC(=O)COCCOCCNC(=O)COCCOCCNC(=O)CC[C@H](NC(=O)CCCCCCCCCCCCCCCCCCC(=O)O)C(=O)O)NC(=O)[C@H](CC(C)C)NC(=O)[C@H](CCC(=O)O)NC(=O)[C@H](CO)NC(=O)[C@@H](NC(=O)[C@H](CC(=O)O)NC(=O)[C@H](CO)NC(=O)[C@@H](NC(=O)[C@H](Cc1ccccc1)NC(=O)[C@@H](NC(=O)CNC(=O)[C@H](CCC(=O)O)NC(=O)C(C)(C)NC(=O)[C@@H](N)Cc1c[nH]cn1)[C@@H](C)O)[C@@H](C)O)C(C)C)[C@@H](C)O)C(=O)N[C@@H](CCC(=O)O)C(=O)N[C@@H](Cc1c[nH]cn1)C(=O)N[C@@H](CC(C)C)C(=O)N[C@H](C(N)=O)C(C)C [compound 57] (H-H[Aib]EGTFTSDVSELK([AEEA-AEEA-γGlu-C20 diacid])ETAAAQRFLEHLV-NH2)
794 nM	0.09	66252	0.0126 nM	9138							CC(C)C[C@H](NC(=O)[C@H](Cc1ccccc1)NC(=O)[C@H](CCCNC(=N)N)NC(=O)[C@H](CCC(N)=O)NC(=O)[C@H](C)NC(=O)[C@H](C)NC(=O)[C@H](C)NC(=O)[C@H](CCC(=O)O)NC(=O)[C@H](CCC(=O)O)NC(=O)[C@H](CCCCNC(=O)COCCOCCNC(=O)COCCOCCNC(=O)CC[C@H](NC(=O)CCCCCCCCCCCCCCCCCCC(=O)O)C(=O)O)NC(=O)[C@H](CC(C)C)NC(=O)[C@H](Cc1ccc(O)cc1)NC(=O)[C@H](CO)NC(=O)[C@@H](NC(=O)[C@H](CC(=O)O)NC(=O)[C@H](CO)NC(=O)[C@@H](NC(=O)[C@H](Cc1ccccc1)NC(=O)[C@@H](NC(=O)CNC(=O)[C@H](CCC(=O)O)NC(=O)C(C)(C)NC(=O)[C@@H](N)Cc1c[nH]cn1)[C@@H](C)O)[C@@H](C)O)C(C)C)C(=O)N[C@@H](CCC(=O)O)C(=O)N[C@@H](Cc1c[nH]cn1)C(=O)N[C@@H](CC(C)C)C(=O)N[C@H](C(N)=O)C(C)C [compound 61] (H-H[Aib]EGTFTSDVSYLK([AEEA-AEEA-γGlu-C20 diacid])EEAAAQRFLEHLV-NH2)
12600 nM	0.08	231739	0.0631 nM	12039							CC(C)C[C@H](NC(=O)[C@H](Cc1ccccc1)NC(=O)[C@H](CCCNC(=N)N)NC(=O)[C@H](CCC(N)=O)NC(=O)[C@H](CO)NC(=O)[C@H](C)NC(=O)[C@H](C)NC(=O)C(C)(C)NC(=O)[C@H](CCC(=O)O)NC(=O)[C@H](CCCCNC(=O)COCCOCCNC(=O)COCCOCCNC(=O)CC[C@H](NC(=O)CCCCCCCCCCCCCCCCCCC(=O)O)C(=O)O)NC(=O)[C@H](CC(C)C)NC(=O)[C@H](Cc1ccccc1)NC(=O)[C@H](CO)NC(=O)[C@@H](NC(=O)[C@H](CC(=O)O)NC(=O)[C@H](CO)NC(=O)[C@@H](NC(=O)[C@H](Cc1ccccc1)NC(=O)[C@@H](NC(=O)CNC(=O)[C@H](CCC(=O)O)NC(=O)C(C)(C)NC(=O)[C@@H](N)Cc1c[nH]cn1)[C@@H](C)O)[C@@H](C)O)C(C)C)C(=O)N[C@@H](CCC(=O)O)C(=O)N[C@@H](Cc1c[nH]cn1)C(=O)N[C@@H](CC(C)C)C(=O)N[C@H](C(N)=O)C(C)C [compound 74] (H-H[Aib]EGTFTSDVSFLK([AEEA-AEEA-γGlu-C20 diacid])E[Aib]AASQRFLEHLV-NH2)
	0.46			260000	5.01 nM	0.0251 nM	223				CC[C@H](C)[C@H](NC(=O)[C@H](Cc1ccccc1)NC(=O)[C@H](CCCNC(=N)N)NC(=O)[C@H](CCC(N)=O)NC(=O)[C@H](CC(C)C)NC(=O)[C@H](C)NC(=O)[C@H](C)NC(=O)CNC(=O)[C@H](CCC(=O)O)NC(=O)[C@H](CC(C)C)NC(=O)[C@H](CC(C)C)NC(=O)[C@H](CCC(=O)O)NC(=O)[C@H](CO)NC(=O)[C@H](Cc1ccc(O)cc1)NC(=O)[C@H](CC(=O)O)NC(=O)[C@H](CO)NC(=O)[C@@H](NC(=O)[C@H](Cc1ccccc1)NC(=O)[C@@H](NC(=O)CNC(=O)[C@H](CCC(=O)O)NC(=O)C(C)(C)NC(=O)[C@@H](N)Cc1c[nH]cn1)[C@@H](C)O)[C@@H](C)O)C(=O)N[C@@H](CCC(N)=O)C(=O)N[C@@H](Cc1c[nH]c2ccccc12)C(=O)N[C@@H](CC(C)C)C(=O)N[C@H](C(N)=O)C(C)C [compound 199] (H-H[Aib]EGTFTSDYSELLEGAALQRFIQWLV-NH2)
	0.08			4368				25100 nM	0.0126 nM	1853532	CC(C)C[C@H](NC(=O)[C@H](Cc1ccccc1)NC(=O)[C@H](CCCNC(=N)N)NC(=O)[C@H](CCC(N)=O)NC(=O)[C@H](CC(C)C)NC(=O)C(C)(C)NC(=O)[C@H](C)NC(=O)[C@H](CCC(=O)O)NC(=O)[C@H](CCC(=O)O)NC(=O)[C@H](CCCCNC(=O)COCCOCCNC(=O)COCCOCCNC(=O)CC[C@H](NC(=O)CCCCCCCCCCCCCCCCCCC(=O)O)C(=O)O)NC(=O)[C@H](CC(C)C)NC(=O)[C@H](Cc1ccc(O)cc1)NC(=O)[C@H](CO)NC(=O)[C@@H](NC(=O)[C@H](CC(=O)O)NC(=O)[C@H](CO)NC(=O)[C@@H](NC(=O)[C@H](Cc1ccccc1)NC(=O)[C@@H](NC(=O)CNC(=O)[C@@H](NC(=O)C(C)(C)NC(=O)[C@@H](N)Cc1c[nH]cn1)C(C)C)[C@@H](C)O)[C@@H](C)O)C(C)C)C(=O)N[C@@H](CCC(=O)O)C(=O)N[C@@H](Cc1c[nH]cn1)C(=O)N[C@@H](CC(C)C)C(=O)N[C@H](C(N)=O)C(C)C [compound 155] (H-H[Aib]VGTFTSDVSYLK([AEEA-AEEA-γGlu-C20 diacid])EEA[Aib]LQRFLEHLV-NH2)

From patent US20260201008A1, “SECRETIN-DERIVED GLP1R SELECTIVE AGONISTS” (GUBRA A/S, priority 2023, published 2026)
